Measured values as given in patent US6410545B1, “Lipid lowering quinazoline dietary supplement composition” (Parker Hughes Institute, priority 1998, dated 2002).

Assays:
[1] = system: hypercholesterolemic C57B⅙ mice; assay: Serum total cholesterol in hypercholesterolemic C57B⅙ mice on Paigen's cocoa butter diet; format: in vivo; details: apo e+/+ C57B1/6 mice, cocoa butter diet two weeks, then drug 1 week at 1.6 mg/kg/day i.p.
Procedure: Three- to four-week old C57B⅙ male mice (Taconic, Germantown, N.Y., USA) were kept in micro-isolator cages on a 12-hour day/night cycle and fed the Paigen's cocoa butter diet (15.8% fat, 1.25% cholesterol, and 0.5% sodium cholate) (Harlan Teklad, Madison, Wis., USA) for two weeks prior to initiation of lipid lowering therapy. Paigen's diet is described in Nishina et.al., 1993, J. Lipid Res. 34: 1413-1422.
(§1) Animals were treated with test compounds by intraperitoneal injection daily for 7 days. A range of doses was administered. Control animals received vehicle alone. The effect of quinazoline derivatives on total cholesterol, LDL, HDL, liver enzymes, and glucose was analyzed. The mice tissues were also examined histologically.
(§2) Serum total cholesterol was measured enzymatically using the cholesterol kit from Sigma Chemical Co. (St. Louis, Mo., USA). For liver tissue lipid measurements, lipids were extracted from homogenized hepatic tissues using the method of Bligh and Dyer (Bligh, et al., Can. J. Biochem. Phys. 1959, 37:911-917). One gram of liver tissue was homogenized in 1 ml of distilled water and extracted with 4 ml of chloroform/methanol (1:1, v/v). The chloroform phase containing the lipids was evaporated under a stream of nitrogen, the lipids dissolved in 100 μL of isopropanol, and subjected to cholesterol determination as described above. Triglyceride (TG) contents were determined using the TG kit from Sigma Chemical Co.
A high cholesterol and high fat diet was used to induce hypercholesterolemia in C57B⅙mice, using the methods described by Paigen, et al. (Nishina, et al., 1993, J. Lipid Res. 34:1413-1422) and as described for Example 1.

apo e−/− mice = assay: Serum total cholesterol in apolipoprotein E deficient mice; format: in vivo; details: apo e−/− (C57B1/6) mice, Western diet two weeks, then drug 1 week at 40 mg/kg/day
Procedure: Three- to four-week old apolipoprotein E deficient (apo E^−/−) mice were the progeny of breeding pairs of apo E knockout (apo EKO) mice obtained from Jackson Labs. (Bar Harbor, Me., USA). Mice were fed either regular rodent chow (5% fat and 0% cholesterol) (Teklad-LM 485, Harlan Teklad, Madison, Wis., USA), the Paigen's cocoa butter diet, or the Western diet (21.22% fat and 0.2% cholesterol) (Harlan Teklad, Madison, Wis., USA) for two weeks prior to treatment.
as §1, §2
On regular rodent chow, the serum total cholesterol level of apo e^−/− mice was 836±57 mg/dL (n=47). After one week therapy with 8 mg/kg/day WHI-P164 (n=12), the mean serum total cholesterol level was reduced to 551±29 mg/dL (p=0.02).
When challenged with a cholesterol-rich diet, these animals developed frank hypercholesterolemia due to delayed clearance of intestinal chylomicrons which shuttle the dietary cholesterol from the intestine to the liver. In the present study, all of the 46 ApoE-deficient mice that were fed Western diet (14) became severely hypercholesterolemic with a mean serum total cholesterol level of 1491±59 mg/dL. One week WHI-P164 therapy reduced the mean serum total cholesterol level of hypercholesterolemic apo e^−/− mice to 1194±84 mg/dL (p=O.006) at a dose level of 8 mg/kg/day (n=19) and to 876±57 mg/dL (p<0.0001) at a dose level of 40 mg/kg/day (n=17) (Table 3).

Row | SMILES | Serum total cholesterol [1] | Serum total cholesterol (apo e−/− mice)
1 | COc1cc2ncnc(Nc3cc(Br)c(O)c(Br)c3)c2cc1OC [WHI-P97, 4-(3′,5′-Dibromo-4′-hydroxylphenyl)-amino-6,7-dimethoxyquinazoline] | 413 ± 18 mg/dL | 1129 ± 46 mg/dL
2 | COc1cc2ncnc(Nc3ccc(C)c(Br)c3)c2cc1OC [WHI-P111, 4-(3′-Bromo-4′-methylphenyl)-amino-6,7-dimethoxyquinazoline] | 406 ± 11 mg/dL | 1425 ± 92 mg/dL
3 | COc1cc2ncnc(Nc3ccc(O)cc3)c2cc1OC [WHI-P131, 4-(4′-Hydroxylphenyl)-amino-6,7-dimethoxyquinazoline] | 433 ± 20 mg/dL | 1532 ± 77 mg/dL
4 | COc1cc2ncnc(Nc3ccccc3O)c2cc1OC [WHI-P132, 4-(2′-Hydroxylphenyl)-amino-6,7-dimethoxyquinazoline] | – | 1774 ± 61 mg/dL
5 | COc1cc2ncnc(Nc3ccc(O)c(Br)c3)c2cc1OC [WHI-P154, 4-(3′-Bromo-4′-hydroxylphenyl)-amino-6,7-dimethoxyquinazoline] | – | 1492 ± 110 mg/dL
6 | COc1cc2ncnc(Nc3ccc(O)c(Cl)c3)c2cc1OC [WHI-P197, 4-(3′-Chloro-4′-hydroxylphenyl)-amino-6,7-dimethoxyquinazoline] | 372 ± 20 mg/dL | 1621 ± 146 mg/dL
